Experimental data from patent US8399491B2, “Derivatives of indole-2-carboxamides and of azaindole-2-carboxamides substituted with a silanyl group, preparation thereof and therapeutic use thereof” (Sanofi, priority 2008, dated 2013).

Experiments:
[1] = target: T1, TRPV1 receptor (Rattus norvegicus, UniProt O35433); assay: Inhibition of the current induced by capsaicin on rat DRGs (whole-cell patch-clamp); type: cell-based; settings: capsaicin response (1 microM), newborn rat DRG primary culture
T1 construct: The neurones of the DRG naturally express the TRPV1 receptor; endogenous in cells; host or cells: primary culture of newborn rat dorsal root ganglion (DRG) neurones
T1 sequence (O35433 whole entry): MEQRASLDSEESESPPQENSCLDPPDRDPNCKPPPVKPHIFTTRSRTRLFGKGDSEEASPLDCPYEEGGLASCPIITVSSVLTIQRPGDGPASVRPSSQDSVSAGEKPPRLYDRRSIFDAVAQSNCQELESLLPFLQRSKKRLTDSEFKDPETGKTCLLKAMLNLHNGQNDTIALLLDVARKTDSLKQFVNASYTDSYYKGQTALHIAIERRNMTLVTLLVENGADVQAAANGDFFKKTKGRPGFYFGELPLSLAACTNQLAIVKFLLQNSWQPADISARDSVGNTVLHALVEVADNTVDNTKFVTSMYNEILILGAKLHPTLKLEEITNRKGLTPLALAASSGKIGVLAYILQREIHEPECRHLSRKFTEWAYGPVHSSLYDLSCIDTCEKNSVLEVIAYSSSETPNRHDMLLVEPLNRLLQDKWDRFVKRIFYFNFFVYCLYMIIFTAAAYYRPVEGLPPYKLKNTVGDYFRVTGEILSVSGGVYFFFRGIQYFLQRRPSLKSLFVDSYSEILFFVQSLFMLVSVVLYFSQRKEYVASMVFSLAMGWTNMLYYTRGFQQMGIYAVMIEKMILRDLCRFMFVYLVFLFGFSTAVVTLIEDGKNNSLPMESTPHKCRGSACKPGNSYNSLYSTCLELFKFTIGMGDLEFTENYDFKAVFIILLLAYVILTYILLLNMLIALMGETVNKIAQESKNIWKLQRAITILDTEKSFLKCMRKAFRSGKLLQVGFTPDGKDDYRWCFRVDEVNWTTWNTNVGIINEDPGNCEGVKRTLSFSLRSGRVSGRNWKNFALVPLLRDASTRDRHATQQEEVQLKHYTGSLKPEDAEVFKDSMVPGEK
Protocol: Test for Inhibition of the Current Induced by Capsaicin on Rat DRGs
Primary Culture of Rat Dorsal Route Ganglion (DRG) Cells:
The neurones of the DRG naturally express the TRPV1 receptor.
Newborn rat DRG primary cultures are prepared from 1-day-old rat pups. Briefly, after dissection, the ganglia are trypsinized and the cells are mechanically dissociated by controlled trituration. The cells are resuspended in an Eagle's basal culture medium containing 10% of foetal calf serum, 25 mM KCl, 2 mM glutamine, 100 μg/ml gentamicin and 50 ng/ml of NGF, and then deposited onto laminin-coated glass coverslips (0.2×10^6 cells per coverslip) which are then placed in Corning 12-well dishes. […]
The measuring chambers (volume 800 μl) containing the cell preparation are placed on the platform of an inverted microscope (Olympus IMT2) equipped with Hoffman optics (Modulation Contrast, New York) and observed at the magnification of ×400. […] The overall currents (membrane potential fixed at −60 mV) are recorded with an Axopatch 1D amplifier (Axon Instruments, Foster city, Calif.), connected to a PC controlled by Pclamp8 software (Axon Instruments). The current traces are recorded on paper and simultaneously digitized (sampling frequency 15 to 25 Hz) and acquired on the hard drive of the PC. […] The results are expressed as % inhibition of the control capsaicin response.

Compound	melting point	inhibition at 0.001 µM ([1]; compound at 1 nM)	inhibition at 0.01 µM ([1]; compound at 10 nM)
O=C(Nc1ccc(N2CCC2)nc1)c1cc2cc([SiH2]C(c3ccccc3)c3ccccc3)ccc2n1Cc1cccc(F)c1	98 to 100 °C		
C[Si](C)(c1ccc2c(c1)cc(C(=O)Nc1ccc(N3CCCC3)nc1)n2Cc1cccc(F)c1)C1CCCCC1	192 to 194 °C		
C[Si](C)(c1ccccc1)c1ccc2c(c1)cc(C(=O)Nc1ccc(N3CCC3)nc1)n2Cc1cccc(F)c1	200 to 202 °C		
C[Si](C)(C)c1ccc2c(c1)cc(C(=O)Nc1ccc(N3CC(O)C3)nc1)n2Cc1cccc(F)c1	207 to 208 °C		
C[Si](C)(c1ccc2c(c1)cc(C(=O)Nc1ccc(N3CCC3)nc1)n2Cc1cccc(F)c1)C1CCCCC1	202 to 203 °C		
C[Si](C)(C)c1ccc2cc(C(=O)Nc3ccc(N4CC(O)C4)nc3)n(Cc3cccc(F)c3)c2c1 [Compound 2, N-[6-(3-Hydroxyazetidin-1-yl)pyridin-3-yl]-6-trimethylsilyl-1-[(3-fluorophenyl)methyl]-1H-indole-2-carboxamide]		84%	
C[Si](C)(C)c1ccc2c(c1)cc(C(=O)Nc1ccc(N3CCC3)nc1)n2Cc1cccc(F)c1 [Compound 3, N-[6-(Azetidin-1-yl)pyridin-3-yl]-5-trimethylsilyl-1-[(3-fluorophenyl)methyl]-1H-indole-2-carboxamide]	212 to 213 °C		95%

More lines, main results first:

melting point	Compound	inhibition at 0.001 µM ([1]; compound at 1 nM)	inhibition at 0.01 µM ([1]; compound at 10 nM)
166 to 168 °C	CC[Si](CC)(CC)c1ccc2c(c1)cc(C(=O)Nc1ccc(N3CCC3)nc1)n2Cc1cccc(F)c1		
110 to 112 °C	CC(C)(C)[Si](C)(C)c1ccc2c(c1)cc(C(=O)Nc1ccc(N3CCC3)nc1)n2Cc1cccc(F)c1		
179 to 180 °C	CC(C)[Si](C)(C)c1ccc2c(c1)cc(C(=O)Nc1ccc(N3CCC3)nc1)n2Cc1cccc(F)c1		
171 to 173 °C	CC[Si](C)(CC)c1ccc2c(c1)cc(C(=O)Nc1ccc(N3CCC3)nc1)n2Cc1cccc(F)c1		
160 to 162 °C	C[Si](C)(C)c1cccc2cc(C(=O)Nc3ccc(N4CCC4)nc3)n(Cc3cccc(F)c3)c12		
215 to 217 °C	C[Si](C)(C)c1cccc2cc(C(=O)Nc3ccc(N4CC(O)C4)nc3)n(Cc3cccc(F)c3)c12		
188 to 189 °C	CC[Si](C)(C)c1ccc2c(c1)cc(C(=O)Nc1ccc(N3CCC3)nc1)n2Cc1cccc(F)c1		
